The text below walks through data of PMC9823097, “Dysregulation of PRMT5 in chronic lymphocytic leukemia promotes progression with high risk of Richter’s transformation” (Nature Communications, 2023).

Several values for one entry are separate records, joined by “and”; a condition that tells them apart may be missing. Equal values may be shown once. Entries after “also recorded” stand apart in the source; their conditions may differ.

One series relates to Mec-1 CLL cell line. Put plainly: Global symmetric dimethyl arginine (SDMA) western blot, Mec-1. It is filed as cell-based. Conditions: Mec-1, 72 h treatment. The source says: Proteins extracted from whole-cell lysates were resolved by SDS-PAGE and transferred on nitrocellulose membrane as previously described. CpG685 oligonucleotide was obtained from the OSU Cytogenetics Core Lab. Antibodies used for immunoblots included anti-human PRMT5 (Abcam #ab109451), GAPDH (Millipore Sigma #MAB374), SDMA (Cell Signaling Technology #13222), c-Myc (Cell Signaling Technology #5605S), and β-Actin (Cell Signaling Technology #4967S). Cas9-mediated doxycycline-inducible knockout of PRMT5 utilized a targeted sgRNA (guide sequence: […], PAM: GGG).
A general note: In western blotting, separated proteins are transferred to a membrane and probed.

Series [1] deals with recombinant human PRMT5/MEP50 (Homo sapiens, UniProt O14744). The series is described as follows: Filtration binding assay with recombinant human PRMT5/MEP50 (biochemical potency). Here is the method:
For biochemical potency and selectivity, PRT382 was solubilized in 100% DMSO and diluted serially threefold. […] Standard reactions were performed in a total volume of 30 μl in assay buffer, with 300 nM histone H4-based AcH4-23 (Anaspec: AS-65002) as substrate. To this was added the PRMT5/MEP50 complex diluted to provide a final assay concentration of 2.5 nM, and the compounds were allowed to preincubate for 20 min at 37 °C. The reaction was initiated by adding S-[3 H-methyl]-adenosyl-L-methionine (PerkinElmer: NET155001MC) to a final concentration of 1 μM. Following a 30 min of incubation at 37 °C, the reaction was stopped by adding 25 μL of 8 M Guanidine HCl. To each reaction, 150 µL of SPA beads suspension (Perkinelmer: RPNQ0012) was added and incubated while shaking at room temperature for 30 min. The plate was centrifuged at 100 xg for 30 s before reading in a scintillation counter. IC50 values were determined by fitting the data to with Hill Slope using GraphPad Prism software (v9.2.0).

Series [2] in a line: Pharmacokinetics in rats (clearance, oral bioavailability). It is filed as in vivo.
The next series has as its system primary CLL cells. The series is described as follows: Proliferation of primary IGHV-U CLL cells, MTS assay, 72 h, with and without CpG. Conditions: for Normalized A490: +CpG, individual patients' primary CLL cells, normalized to -CpG dose 0. It is filed as cell-based, human. An excerpt:
Our research complies with all relevant ethical regulations. De-identified human CLL cells were isolated as previously described after obtaining informed consent on protocols approved by The Ohio State University Cancer Institutional Review Board in accordance with the Declaration of Helsinki. All patients examined had CLL as defined by the 2008 IWCLL criteria. Sex and age of the patients who provided samples was not available. Human peripheral blood mononuclear cells (PBMC) were isolated from CLL patients using Ficoll density gradient centrifugation. (Ficoll-Paque Plus; Amersham Biosciences Inc, Piscataway, NJ). Enriched B-cell fractions were prepared using the RosetteSep™ B-cell kit (STEMCELL Technologies, Vancouver, Canada) according to the manufacturer’s instructions. Isolated cells were incubated in RPMI 1640 media (Invitrogen, Grand Island, NY) supplemented with 10% heat-inactivated fetal bovine serum (Sigma-Aldrich, St. Louis, MO), 2 mM L-glutamine (Invitrogen), and 100 U/mL penicillin/100 μg/mL streptomycin (Sigma-Aldrich) at 37 °C in an atmosphere of 5% CO2. The purity of enriched populations of CLL was routinely checked using CD19-PE (BD Pharmingen, Billerica, MA) staining by flow cytometry.
Cell proliferation was assessed via MTS (3-[4,5-dimethylthiazol-2-yl]-5-[3-carboxymethoxyphenyl]-2-[4-sulfophenyl]-2H-tetrazolium) assay (Sigma), using the tetrazolium dye […]. Cell apoptosis was evaluated by Annexin V-FITC or PE and propidium iodide (PI) staining using FC500 cytometer (Beckman-Coulter, Indianapolis, IN) following the manufacturer’s procedure (BD Pharmingen, Billerica, MA)[55]. For cell cycle analysis, cells were fixed with cold ethanol overnight and then stained before analysis with 30 μg/mL propidium iodide (Invitrogen) and 200 μg/mL RNase (Sigma-Aldrich) in 0.1 % v/v Triton X-100 (Sigma-Aldrich). Cell cycle data analysis was performed using ModFit LT software (Verity Software House, Topsham, ME).
In general terms: Tetrazolium dyes change colour on reduction, which living cells bring about.

Sequence of recombinant human PRMT5/MEP50 (O14744 whole entry): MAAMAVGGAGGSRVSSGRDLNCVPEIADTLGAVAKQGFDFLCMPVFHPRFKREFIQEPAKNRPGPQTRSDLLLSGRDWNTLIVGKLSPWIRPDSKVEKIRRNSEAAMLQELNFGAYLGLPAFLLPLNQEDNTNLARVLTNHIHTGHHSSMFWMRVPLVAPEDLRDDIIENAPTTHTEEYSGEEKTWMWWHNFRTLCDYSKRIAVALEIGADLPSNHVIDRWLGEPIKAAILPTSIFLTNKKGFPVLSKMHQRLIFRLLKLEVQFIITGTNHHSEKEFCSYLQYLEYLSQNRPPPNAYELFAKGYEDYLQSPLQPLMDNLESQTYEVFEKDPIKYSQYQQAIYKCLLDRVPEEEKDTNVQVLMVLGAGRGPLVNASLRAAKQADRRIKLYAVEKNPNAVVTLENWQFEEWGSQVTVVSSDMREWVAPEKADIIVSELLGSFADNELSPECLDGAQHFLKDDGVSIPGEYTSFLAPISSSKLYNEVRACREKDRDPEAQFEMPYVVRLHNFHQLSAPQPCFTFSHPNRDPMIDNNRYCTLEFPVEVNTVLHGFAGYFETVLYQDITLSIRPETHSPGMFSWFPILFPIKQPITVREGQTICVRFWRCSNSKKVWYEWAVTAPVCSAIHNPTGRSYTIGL
Sequence of recombinant human PRMT5/MEP50 (Q9BQA1 whole entry partner): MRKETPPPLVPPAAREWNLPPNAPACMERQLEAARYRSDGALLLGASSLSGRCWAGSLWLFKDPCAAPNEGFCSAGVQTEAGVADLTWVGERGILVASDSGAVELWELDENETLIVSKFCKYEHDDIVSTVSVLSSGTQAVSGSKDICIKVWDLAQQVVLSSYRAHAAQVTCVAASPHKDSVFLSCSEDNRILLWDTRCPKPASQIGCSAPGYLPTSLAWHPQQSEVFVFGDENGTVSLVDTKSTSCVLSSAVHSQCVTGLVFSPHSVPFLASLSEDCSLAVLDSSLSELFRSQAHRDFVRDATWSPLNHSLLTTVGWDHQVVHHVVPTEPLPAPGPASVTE

Regarding `CON=c1nc[nH]c2c1ccn2[C@@H]1O[C@H]([C@H](O)c2ccc(Cl)c(Cl)c2)[C@@H](O)[C@H]1O.Cl` [PRT382, (2 R,3 S,4 R,5 R)-2-[(R)-(3,4-dichlorophenyl)-hydroxy-methyl]-5-[(4Z)-4-methoxyimino-1H-pyrrolo[2,3-d]pyrimidin-7-yl]tetrahydrofuran-3,4-diol hydrochloride], the “lowest dose with decrease in global SDMA residues” value in the series on Mec-1 CLL cell line was found to be 100 nM. Further, the “PRT382 dose-response signal (Figure 6C; DMSO = 100.515)” value came out at 76.3419 in series [1] (508.1 pM); 63.1814 in series [1] (1.52416e-9 M); 38.5693 in series [1] (4.57247e-9 M); 22.7886 in series [1] (1.37174e-8 M); 12.7118 in series [1] (4.11523e-8 M); 6.679 in series [1] (1.23457e-7 M). Further, the “PRT382 dose-response signal (Figure 6C; DMSO = 100.515)” value in series [1] (3.7037e-7 M) is on record as 2.863; in series [1] (1.11111e-6 M), 1.261; in series [1] (3.33333e-6 M), 0.4291; in series [1] (1e-5 M) it was 0.1164. The clearance result in series [2] is given as “low”. The bioavailability (usually dose-corrected exposure relative to a reference, in per cent) in series [2] (rat, in vivo, po, read-out: oral bioavailability (F%)) fell in the range of 70 to 80%. In addition, the “Normalized A490” value was 3.307 and 4.074 and 2.806 and 1.916 and 4.967 and 4.310 and 1.926 and 2.473 and 1.595 and 1.924 in the series on primary CLL cells (PRT382 0.001 μM); 3.718 and 3.941 and 2.668 and 1.775 and 4.704 and 4.675 and 1.969 and 2.468 and 1.587 with primary CLL cells (PRT382 0.010 μM); 3.022 and 3.734 and 2.874 and 1.799 and 4.461 and 3.405 and 1.501 and 2.532 and 1.373 with primary CLL cells (PRT382 0.100 μM); 2.691 and 3.811 and 2.801 and 1.761 and 4.387 and 2.568 and 1.496 and 2.524 and 1.293 with primary CLL cells (PRT382 1.000 μM); 1.699 and 2.509 and 3.622 and 2.474 and 1.561 and 4.249 and 2.269 and 1.136 and 2.309 in the series on primary CLL cells (PRT382 10.000 μM). Further, the “proliferative potential of primary CLL cells” value in the series on primary CLL cells (n = 12 IGHV-U patients, 72 h, with and without TLR9 stimulation (CpG)) is given as “Dose-dependent decrease in proliferation; also recorded: dose-dependent reduction in proliferative potential”.
